Measured values published in patent publication US9320803B2 (priority 2011, dated 2016).
Blank lines part the entries; values can stand above or below the compound they belong to.

Assays:
[1] = Binding studies to hydroxyapatite; settings: pH 7.4, 37° C., 300 μM, hydroxyapatite 30 eq
Protocol: General procedure: In a falcon tube, the test compound was diluted in phosphate-buffer (4 mM Na2HPO4 containing 150 mM NaCl, pH 7.4) to obtain a solution with a concentration of 300 μM. Hydroxyapatite (30 eq) was added and the suspension was stirred well and incubated at 37° C. Another solution of the samples without hydroxyapatite was used as control. […] (4000 rpm, duration: 60 sec, Heraeus® Megafuge® 1.0) and the absorbance of the supernatant was measured with a spectrophotometer at a wavelength of 495 nm (ε495(doxorubicin)=10 650 M^−1 cm^−1). Each result represents the arithmetic average of three measurements and percent HA binding was calculated.

[2] = Acid cleavage study of compound 14 (HPLC); assay type: physicochemical; settings: pH 3.8 (phosphoric acid added), after 5 min at room temperature, 300 μM, reverse phase HPLC
Protocol: 1 mL of a 300 μM solution of 14 in 50 mM sodium phosphate buffer was prepared and a 50 μL sample was analyzed by reverse phase HPLC (see FIG. 1A). To 400 μL of this solution was added 4 μL concentrated phosphoric acid resulting in a pH value of 3.8.

[3] = molecular target: T1, cathepsin B (Homo sapiens, UniProt P07858); test: Cleavage studies with cathepsin B (HPLC); assay type: biochemical
T1 construct: purchased Calbiochem, Germany
Protocol: For cleavage of 16 with cathepsin B, 150 μL of a 50 mM sodium acetate buffer containing 100 mM NaCl, 4 mM EDTA Na2 and 0.15 mg L-cysteine (pH 5.0). 6.7 μL cathepsin B solution (23.8 U/mg, from Calbiochem, Germany) were added to a 100 μL solution of 16 (300 μM in 50 mM sodium phosphate buffer, pH 7.0) and the solution incubated for 1 h at 37° C.
HPLC was carried out with a Symmetry300, C18, 5 μm (4.6×250 mm) HPLC using 15% acetonitrile and 85% 20 mM sodium phosphate buffer (pH 7.0) as mobile phase A and 30% acetonitrile and 70% 20 mM sodium phosphate buffer (pH 7.0) as mobile phase B. The gradient was 0 to 1.5 min 100% phase A, 1.5 to 20 min to 100% B, 20 min to 45 min 100% B, 45 to 55 min to 100% A. Flow 1 mL/min; injection volume: 50 μL.
A 176 μL stock solution of compound 23 [1.5 mM] was diluted with 9 μL cathepsin B (0.4 mg/mL, 23.8 U/mg, from Calbiochem, Germany) and 264 μL of buffer (50 mM sodium acetate, 100 mM NaCl, 4 mM EDTA, pH 5.0) containing L-cysteine (8 mM). The mixture was incubated at 37° C. and aliquots (65 μL) were taken after 0 min, 20 min, 40 min, 60 min and 120 min and analyzed by HPLC. […]

[4] = pH 5.0; cited from earlier work
[5] = Binding studies to native bone matrix; design: species or system bovine; settings: after 4 h, pH 7.4, 37° C., 300 μM, about 50 mg bone piece
Protocol: For this binding assay, bovine bone fragments were cut into small pieces (6 mm×4 mm×1 mm). The bone pieces were left untreated, washed with water (bidest.) and with absolute ethanol and dried over night at room temperature. Then, in a falcon tube the prodrugs were dissolved in phosphate-buffer (4 mM Na2HPO4 containing 150 mM NaCl, pH 7.4) to obtain a concentration of 300 μM. Approximately 50 mg of an untreated bone piece was added to the clear red solution, and the samples were incubated under stirring at 37° C. After 4 h, the samples were centrifuged (4000 rpm, duration: 60 sec, Heraeus® Megafuge® 1.0), and the absorbance of the supernatant was measured with a spectrophotometer at a wavelength of 495 nm (ε495(doxorubicin)=10650 M^−1 cm^−1). Percent bone binding was calculated

SMILES: COc1cccc2c1C(=O)c1c(O)c3c(c(O)c1C2=O)C[C@@](O)(/C(CO)=N/NC(=O)CCCCCN1C(=O)CC(SCCCSCC(P(=O)(O)O)P(=O)(O)O)C1=O)C[C@@H]3OC1C[C@@H](N)[C@@H](O)[C@@H](C)O1 (stereo partly shown) [compound 14]
percent HA binding ([1]; after 5 h): ~80%
percent HA binding ([1]; after one hour): approximately 50%
cleavage to doxorubicin [2]: rapid cleavage to doxorubicin

SMILES: COc1cccc2c1C(=O)c1c(O)c3c(c(O)c1C2=O)C[C@@](O)(C(=O)CO)CC3O[C@H]1C[C@H](NC(=O)OCc2ccc(NC(=O)[C@H](C)NC(=O)[C@@H](NC(=O)CCCCCN3C(=O)CC(SCCCSCC(P(=O)(O)O)P(=O)(O)O)C3=O)C(C)C)cc2)[C@H](O)[C@H](C)O1 (stereo partly shown) [compound 23]
percent HA binding ([1]; after 5 h): over 90%
percent HA binding ([1]; after 24 h): ~100%
percent HA binding ([1]; after one hour): approximately 50%
cleavage to doxorubicin by cathepsin B ([3]; incubation 2 h at 37° C., pH 5.0, reversed phase HPLC): complete cleavage to doxorubicin

SMILES: COc1cccc2c1C(=O)c1c(O)c3c(c(O)c1C2=O)C[C@@](O)(/C(CO)=N/NC(=O)CCCCCN1C(=O)C=CC1=O)C[C@@H]3O[C@H]1C[C@H](N)[C@H](O)[C@H](C)O1 [DOXO-EMCH, 6-maleimidocaproylhydazone derivative of doxorubicin]
acid-sensitive cleavage releasing doxorubicin [4]: cleavable at pH 5.0

SMILES: COc1cccc2c1C(=O)c1c(O)c3c(c(O)c1C2=O)C[C@@](O)(C(=O)CO)CC3O[C@H]1C[C@H](NC(=O)OCc2ccc(NC(=O)C(CCCCN)NC(=O)C(Cc3ccccc3)NC(=O)CCCCCN3C(=O)CC(SCCCSCC(P(=O)(O)O)P(=O)(O)O)C3=O)cc2)[C@H](O)[C@H](C)O1 (stereo partly shown) [compound 16]
cleavage to doxorubicin by cathepsin B ([3]; incubation 1 h at 37° C., buffer pH 5.0, reverse phase HPLC): complete cleavage to doxorubicin

percent bone binding [5]: no binding
SMILES: COc1cccc2c1C(=O)c1c(O)c3c(c(O)c1C2=O)C[C@@](O)(C(=O)CO)C[C@@H]3O[C@H]1C[C@H](N)[C@H](O)[C@H](C)O1 [doxorubicin]
